# Laboratory results published in US5409948A (priority 1992, dated 1995).
# “Also recorded” adds a separate entry of the source.
# What was measured:
# [1] = test system: scopolamine-induced impairment in learning performance of rats; parameters: species or system male Fischer-344 rats; settings: rat, in vivo
# [2] = target: human acetylcholinesterase (AChE); settings: read-out: IC50 against human AChE; cited from earlier work
# [3] = in vivo
# [4] = rat, in vivo
# plasma AChE = format: in vivo, Fischer-344 rats
# [5] = target: human butyrylcholinesterase (BChE); settings: read-out: IC50 against human BChE; cited from earlier work
# [6] = test system: human acetylcholinesterase (AChE); format: biochemical
# [7] = test system: memory consolidation in mice; settings: mouse, in vivo; cited from earlier work
# [8] = test system: scopolamine-induced impairment in learning performance of rats; settings: rat, in vivo; cited from earlier work
# acetylcholine in brain = settings: in vivo; cited from earlier work
# [9] = test system: performance deficits induced by scopolamine; settings: in vivo; cited from earlier work
# cholinesterase = settings: cited from earlier work
# [10] = in vivo; cited from earlier work
# [11] = test system: brain and plasma AChE and BChE; settings: cited from earlier work
# [12] = test system: patients with Alzheimer's disease; settings: human, in vivo; cited from earlier work
# neuromuscular AChR = settings: cited from earlier work
# cholinesterase (ChE) = settings: cited from earlier work
structure (smiles),measurement,setting,value
"CN1[C@@H]2C[C@@H](OC(=O)[C@H](CO)c3ccccc3)C[C@H]1[C@@H]1O[C@@H]12 [SCOP, reference compound]",all five measures of the maze task,[1],significantly worse performance in all five measures of the maze task
"CN1CC[C@@]2(C)c3cc(OC(=O)Nc4ccccc4)ccc3N(C)[C@@H]12 [phenserine, (-)-N-phenylcarbamoyl eseroline]",IC50,[2],24 ± 6 nM
same,LD50 (in words),[3],substantially higher than that of physostigmine itself
same,central tremor,[3],a slight central tremor is evident
same,toxicity or deaths,[3],have not been associated with toxicity or deaths
same,SCOP-induced learning impairment,[1],significantly attenuated the SCOP-induced learning impairment
same,alternation error ratio,[1],"only 10.0 and 1.5 mg/kg doses of phenserine improved alternation error performance at blocks 4 and 5 and block 5, respectively; also recorded: only the 10.0 and 1.5 mg/kg doses of phenserine reduced the ratio significantly at blocks 4 and 5 and block 5, respectively"
same,error performance,[1],all but the 7.5 mg/kg dose of phenserine significantly ameliorated error performance
same,error performance at blocks 4 and 5,[1],improved error performance at maze training blocks 4 and 5 except the 7.5 mg/kg dose
same,number of errors at block 4,[1],reduced significantly at block 4 by all but the 7.5 mg/kg dose
same,runtime,[1],"all but the 7.5 mg/kg dose of phenserine significantly ameliorated error performance, runtime"
same,shock duration,[1],"all but the 7.5 mg/kg dose of phenserine significantly ameliorated error performance, runtime, shock frequency and shock duration"
same,shock frequency,[1],"all but the 7.5 mg/kg dose of phenserine significantly ameliorated error performance, runtime, shock frequency"
same,therapeutic window,[1],wide therapeutic window
same,time after i.p. administration at which improvement of learning performance was observed,[1]; ip,more than 1 hour
same,activity of animals,[4],seemed less active than at other doses
same,behavior of animals,[4],very aggressive and difficult to handle
same,"peripheral cholinergic effects, such as salivation and diarrhea",[4],not noticed at any doses tested
same,side effects,[4],"chewing, grooming, and wet dog shakes"
same,toxic side effects without peripheral cholinergic inhibitors,[4],large doses can be administered without toxic side effects
same,AChE inhibition at 8 hours,plasma AChE; at 8 hours,43.0%
same,"AChE inhibition and its duration, in words","plasma AChE; rat, in vivo","long, steady state inhibition of AChE at very low and non-toxic doses"
same,AChE inhibition compared to physostigmine,"plasma AChE; rat, in vivo",dramatically higher inhibition of AChE at a lower dose
same,duration of high and relatively constant AChE inhibition,"plasma AChE; rat, in vivo",more than 8 hours
same,maximum AChE inhibition,"plasma AChE; rat, in vivo",73.5%
same,IC50,[5],1300 ± 8.5 nM
same,selectivity of anticholinesterase action (AChE vs BChE),[6],high selectivity of anticholinesterase action
CCCCCCCNC(=O)Oc1ccc2c(c1)[C@]1(C)CCN(C)[C@@H]1N2C [heptyl-Phy],memory consolidation,[7],facilitates memory consolidation in mice
same,alternation error performance,[8],lack of improvement
same,learning impairment of SCOP-treated rats,[8],failed to ameliorate the learning impairment
same,number of errors,[8],significantly reduced the number of errors
same,scopolamine-induced learning impairment of rats,[8],attenuated the scopolamine-induced learning impairment
same,"activity in 14-unit T-maze model, in words",[1],inferior to phenserine
same,mean errors per trial at each block of three trials,[1],reduced error performance compared to the SCOP group
same,mean errors per trial for 15 trials,[1],significantly (P<0.05) better performance than the SCOP group
same,ratio of alternation errors per trial to opportunities,[1],no significant effect
same,increases in acetylcholine in brain vs parent compound,acetylcholine in brain,more persistent increases in acetylcholine in brain
same,performance deficits induced by scopolamine,[9],reverses the performance deficits induced by scopolamine
same,inhibitory action on cholinesterase vs parent compound,cholinesterase,longer inhibitory action on cholinesterase
same,toxicity vs parent compound,[10],less toxicity than the parent compound
CNC(=O)Oc1ccc2c(c1)[C@]1(C)CCN(C)[C@@H]1N2C [Physostigmine],IC50 of brain vs plasma AChE and BChE,[11],similar
same,"activity in 14-unit T-maze model, in words",[1],no significant activity in this model
same,pharmacological half life in patients,[12],short pharmacological half life
same,AChE inhibition at 60 minutes,"plasma AChE; rat, in vivo",negligible
same,"AChE inhibition, immediate","plasma AChE; rat, in vivo",approximately 50%
same,properties at the neuromuscular AChR,neuromuscular AChR,blocking properties as well as agonist properties
same,LD50,[10],0.6 mg/kg
"Nc1c2c(nc3ccccc13)CCCC2 [THA, tetrahydroaminoacridine]",toxicity in Alzheimer's patients,[12],causes toxicity
CNC(=O)Oc1ccc2c(c1)[C@@]1(C)CCN(C)[C@H]1N2C [(+)-physostigmine],inhibition of cholinesterase,cholinesterase (ChE),negligible inhibition; also recorded: negligible ChE inhibitory activity
